We go through 20 compounds from patent publication USRE47221E1, “Tricyclic compounds” (AbbVie Inc., priority 2009, dated 2019).

SMILES strings stand for the structures.

The target in the first data set is T1, Jak3 (Homo sapiens, UniProt P52333).
T1 construct: Jak3 enzyme (aa 811-1103); expressed in SF9 cells as a GST fusion; GST; made in house; host or cells: SF9 insect cells
T1 sequence (P52333 811-1103): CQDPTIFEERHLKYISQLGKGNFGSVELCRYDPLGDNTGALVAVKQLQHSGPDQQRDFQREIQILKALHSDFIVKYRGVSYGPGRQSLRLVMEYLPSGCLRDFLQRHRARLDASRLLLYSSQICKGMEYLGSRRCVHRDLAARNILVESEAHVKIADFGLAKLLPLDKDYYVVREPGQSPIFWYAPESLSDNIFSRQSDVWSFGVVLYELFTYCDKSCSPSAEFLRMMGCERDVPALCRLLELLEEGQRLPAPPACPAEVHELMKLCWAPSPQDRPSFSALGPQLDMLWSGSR
Briefly: Jak3 enzyme data for selected compounds. It counts as biochemical.
As usually defined, the IC50 is the point on the concentration scale where inhibition reaches its midpoint. A high value points to weaker potency. On to `O=C(N1CCC[C@@H](c2ncc3cnc4[nH]ccc4n23)C1)N1CCC(F)(F)C1` [J.3.2], for which the IC50 was less than 100 nM.

Compound `N#CC1CN(C(=O)N2CCC[C@@H](c3ncc4cnc5[nH]ccc5n34)C2)C1` [J.3.4] yielded an IC50 of less than 100 nM.

`CC1(C)CCN(C(=O)N2CCC[C@@H](c3ncc4cnc5[nH]ccc5n34)C2)C1` [J.3.6] yielded an IC50 of 100 to 1000 nM.

In turn, `O=C(N1CCC[C@@H](c2ncc3cnc4[nH]ccc4n23)C1)N1CCCC(F)(F)C1` [J.3.7] came in with an IC50 of 100 to 1000 nM.

`N#CC1CCN(C(=O)N2CCC[C@@H](c3ncc4cnc5[nH]ccc5n34)C2)CC1` [J.3.8] had a half-maximal inhibitory concentration (IC50) of 100 to 1000 nM.

The compound `CC1(C)CCN(C(=O)N2CCC[C@@H](c3ncc4cnc5[nH]ccc5n34)C2)CC1` [J.3.10] returned an IC50 of less than 100 nM.

In turn, `O=C(N1CCC(Cl)CC1)N1CCC[C@@H](c2ncc3cnc4[nH]ccc4n23)C1` [J.3.11] displayed a half-inhibitory concentration (IC50) of less than 100 nM.

In turn, `O=S(=O)(NC12CCC(c3cnc4cnc5[nH]ccc5n34)(CC1)CC2)C1CC1` [K.3.1] displayed a half-maximal inhibitory concentration (IC50) of 100 to 1000 nM.

Take `CC[C@@H]1C[C@H](NS(=O)(=O)CCC(F)(F)F)CN1c1cnc2cnc3[nH]ccc3n12` [K.4.1]: the IC50 was less than 100 nM.

Turning to `CC[C@@H]1C[C@H](NS(=O)(=O)CC(F)(F)F)C[C@@H]1c1nnc2cnc3[nH]ccc3n12` [K.5.1], the IC50 was less than 100 nM.

`CC[C@@H]1C[C@H](NS(=O)(=O)C2CC2)C[C@@H]1c1nnc2cnc3[nH]cc(C)c3n12` [LL.1.1] had an IC50 of 100 to 1000 nM.

The compound `CC[C@@H]1C[C@H](N(CO)S(=O)(=O)C2CC2)C[C@@H]1c1nnc2cnc3[nH]cc(C)c3n12` [LL.1.2] returned an IC50 greater than 1000 nM.

Turning to `CC[C@@H]1C[C@H](NS(=O)(=O)C2CC2)C[C@@H]1c1nnc2cnc3[nH]cc(C#N)c3n12` [LL.1.3], the IC50 was greater than 1000 nM.

`CC[C@@H]1C[C@H](S(=O)(=O)CC(F)(F)F)C[C@@H]1c1nnc2cnc3[nH]ccc3n12` [LL.1.4] displayed an IC50 greater than 1000 nM.

In the case of `CC[C@@H]1C[C@H](NS(=O)(=O)C2CC2)C[C@@H]1c1nnc2cnc3[nH]cc(I)c3n12` [Preparation #GGG.1, N-((1S,3R,4S)-3-ethyl-4-(8-iodo-6H-pyrrolo[2,3-e][1,2,4]triazolo[4,3-a]pyrazin-1-yl)cyclopentyl)cyclopropanesulfonamide], the IC50 lay in the range of 100 to 1000 nM.

For the compound `C[C@@H]1CCN(C(=O)Nc2ccc(C#N)cc2)C[C@@H]1c1ncc2cnc3[nH]ccc3n12` [QQ.1.4], the IC50 is less than 100 nM.

Take `CS(=O)(=O)Nc1ccc(-c2nc(C3CCCCC3)n3c2cnc2[nH]ccc23)cc1` [UUU.1.1]: the IC50 was less than 100 nM.

In the case of `CC[C@@H]1C[C@H](NS(=O)(=O)CCn2cc(C#N)cn2)C[C@@H]1c1nnc2cnc3[nH]ccc3n12` [YY.1.1, 2-(4-cyano-1H-pyrazol-1-yl)-N-((1S,3R,4S)-3-ethyl-4-(6H-pyrrolo[2,3-e][1,2,4]triazolo[4,3-a]pyrazin-1-yl)cyclopentyl)ethanesulfonamide], the IC50 was greater than 1000 nM.

The compound `CC[C@@H]1C[C@H](NS(=O)(=O)CCn2cncn2)C[C@@H]1c1nnc2cnc3[nH]ccc3n12` [YY.1.2] returned an IC50 greater than 1000 nM.

Tested on in the next data set: not given
Assay: not given
One may read the melting point as the temperature of the solid-liquid transition. `C[C@@H]1C[C@H](NS(=O)(=O)CCC(F)(F)F)C[C@@H]1c1cnc2cnc3[nH]ccc3n12` [Example #7, N-((1S,3S,4R)-3-(3H-imidazo[1,2-a]pyrrolo[2,3-e]pyrazin-8-yl)-4-methylcyclopentyl)-3,3,3-trifluoropropane-1-sulfonamide]: the melting point came out at 225 °C.
